Data taken from patent publication US20150218172A1, “Pyrrolo[2,3-D]Pyrimidine Tropomyosin-Related Kinase Inhibitors” (PFIZER LIMITED, priority 2012, published 2015).

Target: T1, TrkA (Homo sapiens, UniProt P04629)
T1 construct: aa 441-796; His; purchased Invitrogen PV3144
Experiment: Isolated TRK enzyme assay (HTRF KinEASE-TK kit), PV3144 TrkA enzyme assay
Type: biochemical
Settings: PV3144 TrkA enzyme assay, recombinant His-tagged cytoplasmic domain aa 441-796, 4 nM enzyme, 40 uM ATP; arithmetic mean where more than one reading; read-out: Trka enzyme (IC50)
In short: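 HTRF KinEASE tyrosine-phosphorylation readout (665/620 nm ratio) on a 1 uM biotinylated substrate after reaction with preactivated His-tagged TrkA cytoplasmic domain plus ATP and MgCl2/DTT buffer. Compound preincubated 20 min with enzyme; IC50 from log-concentration sigmoid curve, averaged where repeated.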

T1 sequence (P04629 441-796): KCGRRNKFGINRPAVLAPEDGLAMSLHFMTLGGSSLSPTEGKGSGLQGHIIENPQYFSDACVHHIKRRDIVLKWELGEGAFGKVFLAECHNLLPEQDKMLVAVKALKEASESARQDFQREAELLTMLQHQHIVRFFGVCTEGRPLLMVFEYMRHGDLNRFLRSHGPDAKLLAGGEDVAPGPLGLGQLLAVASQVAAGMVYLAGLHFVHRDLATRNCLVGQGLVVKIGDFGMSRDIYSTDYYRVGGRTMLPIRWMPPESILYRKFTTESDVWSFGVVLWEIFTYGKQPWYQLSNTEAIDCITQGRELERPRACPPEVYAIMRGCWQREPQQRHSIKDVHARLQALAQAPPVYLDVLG

| SMILES | IC50 |
| --- | --- |
| Cc1cc(C(C)C)nn1CC(=O)Nc1cc(C(=O)c2cn(C(C)C)c3ncncc23)ccn1 [Example 151, 2-[5-methyl-3-(propan-2-yl)-1H-pyrazol-1-yl]-N-(4-{[7-(propan-2-yl)-7H-pyrrolo[2,3-d]pyrimidin-5-yl]carbonyl}pyridin-2-yl)acetamide] | 0.0212 µM |
| O=C(Cc1ccc(Cl)cc1)Nc1cc(C(=O)c2cn(C(CO)CO)c3ncncc23)ccn1 [Example 113, 2-(4-Chlorophenyl)-N-[4-({7-[2-hydroxy-1-(hydroxymethyl)ethyl]-7H-pyrrolo[2,3-d]pyrimidin-5-yl}carbonyl)pyridin-2-yl]acetamide] | 0.0589 µM |
| C[C@H](CO)n1cc(C(=O)c2cc(NC(=O)Cc3ccc(Cl)cc3)ccn2)c2cncnc21 [Example 28, 2-(4-chlorophenyl)-N-[2-({7-[(2R)-1-hydroxypropan-2-yl]-7H-pyrrolo[2,3-d]pyrimidin-5-yl}carbonyl)pyridin-4-yl]acetamide] | 0.111 µM |
| Cc1nccn1CC(=O)Nc1cc(C(=O)c2cn(C(C)C)c3ncncc23)ccn1 [Example 162, 2-(2-methyl-1H-imidazol-1-yl)-N-(4-{[7-(propan-2-yl)-7H-pyrrolo[2,3-d]pyrimidin-5-yl]carbonyl}pyridin-2-yl)acetamide] | 9.8 µM |
| C[C@H](CO)n1cc(C(=O)c2cc(NC(=O)Cn3ccc(C(F)(F)F)n3)ccn2)c2cncnc21 [Example 26, N-[2-({7-[(2R)-1-hydroxypropan-2-yl]-7H-pyrrolo[2,3-d]pyrimidin-5-yl}carbonyl)pyridin-4-yl]-2-[3-(trifluoromethyl)-1H-pyrazol-1-yl]acetamide] | 0.0245 µM |
| COc1ccc(CC(=O)Nc2cc(C(=O)c3cn(C(C)C)c4ncncc34)ccn2)cc1 [Example 161, 2-(4-methoxyphenyl)-N-(4-{[7-(propan-2-yl)-7H-pyrrolo[2,3-d]pyrimidin-5-yl]carbonyl}pyridin-2-yl)acetamide] | 0.0608 µM |
| C[C@@H](CO)n1cc(C(=O)c2cc(NC(=O)Cc3ccc(C(F)(F)F)cc3)ccn2)c2cncnc21 [Example 17, N-[2-({7-[(2S)-1-hydroxypropan-2-yl]-7H-pyrrolo[2,3-d]pyrimidin-5-yl}carbonyl)pyridin-4-yl]-2-[4-(trifluoromethyl)phenyl]acetamide] | 0.0722 µM |
| Cc1cc(C)n(CC(=O)Nc2cc(C(=O)c3cn([C@H]4CC[C@@H](O)CC4)c4ncncc34)ccn2)n1 [Example 4, 2-(3,5-dimethyl-1H-pyrazol-1-yl)-N-(4-{[7-(cis-4-hydroxycyclohexyl)-7H-pyrrolo[2,3-d]pyrimidin-5-yl]carbonyl}pyridin-2-yl)acetamide] | 0.0743 µM |
| CC(C)n1cc(C(=O)c2ccnc(NC(=O)Cc3ccccc3)c2)c2cncnc21 [Example 149, 2-phenyl-N-(4-{[7-(propan-2-yl)-7H-pyrrolo[2,3-d]pyrimidin-5-yl]carbonyl}pyridin-2-yl)acetamide] | 0.171 µM |
| CC(C)n1cc(C(=O)c2ccnc(NC(=O)Cc3ccc(Cl)c(Cl)c3)c2)c2cncnc21 [Example 66, 2-(3,4-Dichlorophenyl)-N-{4-[(7-isopropyl-7H-pyrrolo[2,3-d]pyrimidin-5-yl)carbonyl]pyridin-2-yl}acetamide] | 0.00445 µM |
| Cc1cc(C(F)(F)F)nn1CC(=O)Nc1cc(C(=O)c2cn(C(C)C)c3ncncc23)ccc1C#N [Example 35, N-(2-cyano-5-{[7-(propan-2-yl)-7H-pyrrolo[2,3-d]pyrimidin-5-yl]carbonyl}phenyl)-2-[5-methyl-3-(trifluoromethyl)-1H-pyrazol-1-yl]acetamide] | 0.0109 µM |
| Cc1cc(C(=O)c2cn(C(C)C)c3ncncc23)cc(NC(=O)Cc2ccc(C#N)c(C(F)(F)F)c2)n1 [Example 78, 2-[4-cyano-3-(trifluoromethyl)phenyl]-N-(6-methyl-4-{[7-(propan-2-yl)-7H-pyrrolo[2,3-d]pyrimidin-5-yl]carbonyl}pyridin-2-yl)acetamide] | 0.118 µM |
| Cc1cc(C)n(CC(=O)Nc2cc(C(=O)c3cn(CC(C)(C)O)c4ncncc34)ccn2)n1 [Example 127, 2-(3,5-dimethyl-1H-pyrazol-1-yl)-N-(4-{[7-(2-hydroxy-2-methylpropyl)-7H-pyrrolo[2,3-d]pyrimidin-5-yl]carbonyl}pyridin-2-yl)acetamide] | 1.11 µM |
| CC(C)(CO)n1cc(C(=O)c2cc(NC(=O)Cc3ccc(Cl)cn3)ccn2)c2cncnc21 [Example 58, 2-(5-chloropyridin-2-yl)-N-(2-{[7-(1-hydroxy-2-methylpropan-2-yl)-7H-pyrrolo[2,3-d]pyrimidin-5-yl]carbonyl}pyridin-4-yl)acetamide] | 0.0116 µM |
| O=C(Cc1cccc(OC(F)(F)F)c1)Nc1cc(C(=O)c2cn(CCO)c3ncncc23)ccn1 [Example 135, N-(4-{[7-(2-hydroxyethyl)-7H-pyrrolo[2,3-d]pyrimidin-5-yl]carbonyl}pyridin-2-yl)-2-[3-(trifluoromethoxy)phenyl]acetamide] | 0.0215 µM |
| C[C@H](CO)n1cc(C(=O)c2cc(NC(=O)Cc3ccc(F)cn3)ccn2)c2cncnc21 [Example 27, 2-(5-fluoropyridin-2-yl)-N-[2-({7-[(2R)-1-hydroxypropan-2-yl]-7H-pyrrolo[2,3-d]pyrimidin-5-yl}carbonyl)pyridin-4-yl]acetamide] | 0.139 µM |
| CC(C)(CO)n1cc(C(=O)c2cc(NC(=O)Cc3ccc(C(F)(F)F)cc3)ccn2)c2cnc(N)nc21 [Example 50, N-(2-{[2-amino-7-(1-hydroxy-2-methylpropan-2-yl)-7H-pyrrolo[2,3-d]pyrimidin-5-yl]carbonyl}pyridin-4-yl)-2-[4-(trifluoromethyl)phenyl]acetamide] | 0.00929 µM |
| CC1(n2cc(C(=O)c3cc(NC(=O)Cc4ccc(Cl)cn4)ccn3)c3cncnc32)COC1 [Example 168, 2-(5-chloropyridin-2-yl)-N-(2-{[7-(3-methyloxetan-3-yl)-7H-pyrrolo[2,3-d]pyrimidin-5-yl]carbonyl}pyridin-4-yl)acetamide] | 0.155 µM |
| CC(C)n1cc(C(=O)c2ccnc(NC(=O)Cc3ccc(C#N)cc3)c2)c2cncnc21 [Example 68, 2-(4-cyanophenyl)-N-(4-{[7-(propan-2-yl)-7H-pyrrolo[2,3-d]pyrimidin-5-yl]carbonyl}pyridin-2-yl)acetamide] | 0.051 µM |
| O=C(Cn1ccc(C(F)(F)F)n1)Nc1ccnc(C(=O)c2cn(C(CO)CO)c3ncncc23)c1 [Example 101, N-(2-{[7-(1,3-dihydroxypropan-2-yl)-7H-pyrrolo[2,3-d]pyrimidin-5-yl]carbonyl}pyridin-4-yl)-2-[3-(trifluoromethyl)-1H-pyrazol-1-yl]acetamide] | 0.247 µM |
| CC(C)c1cn(CC(=O)Nc2cc(C(=O)c3cn(C(C)C)c4ncncc34)ccn2)nn1 [Example 164, N-(4-{[7-(propan-2-yl)-7H-pyrrolo[2,3-d]pyrimidin-5-yl]carbonyl}pyridin-2-yl)-2-[4-(propan-2-yl)-1H-1,2,3-triazol-1-yl]acetamide] | 0.0318 µM |
| CC(C)c1cn(CC(=O)Nc2ccnc(C(=O)c3cn([C@@H](C)CO)c4ncncc34)c2)nn1 [Example 29, N-[2-({7-[(2S)-1-hydroxypropan-2-yl]-7H-pyrrolo[2,3-d]pyrimidin-5-yl}carbonyl)pyridin-4-yl]-2-[4-(propan-2-yl)-1H-1,2,3-triazol-1-yl]acetamide] | 0.0742 µM |
| CC(C)n1cc(C(=O)c2ccnc(NC(=O)Cc3ccc(C#N)c(C(F)(F)F)c3)c2)c2cncnc21 [Example 71, 2-[4-cyano-3-(trifluoromethyl)phenyl]-N-(4-{[7-(propan-2-yl)-7H-pyrrolo[2,3-d]pyrimidin-5-yl]carbonyl}pyridin-2-yl)acetamide] | 0.0492 µM |
| C[C@@H](CO)n1cc(C(=O)c2cc(NC(=O)Cc3cccc(C(F)(F)F)c3)ccn2)c2cncnc21 [Example 24, N-[2-({7-[(2S)-1-hydroxypropan-2-yl]-7H-pyrrolo[2,3-d]pyrimidin-5-yl}carbonyl)pyridin-4-yl]-2-[3-(trifluoromethyl)phenyl]acetamide] | 0.0598 µM |
| C[C@@H](CO)n1cc(C(=O)c2cc(NC(=O)Cc3ccc(C#N)cc3)ccn2)c2cncnc21 [Example 15, 2-(4-cyanophenyl)-N-[2-({7-[(2S)-1-hydroxypropan-2-yl]-7H-pyrrolo[2,3-d]pyrimidin-5-yl}carbonyl)pyridin-4-yl]acetamide] | 0.0948 µM |
| CC(C)n1cc(C(=O)c2cc(NC(=O)Cn3cc(C(F)(F)F)nn3)ccn2)c2cnc(N)nc21 [Example 90, N-(2-{[2-amino-7-(propan-2-yl)-7H-pyrrolo[2,3-d]pyrimidin-5-yl]carbonyl}pyridin-4-yl)-2-[4-(trifluoromethyl)-1H-1,2,3-triazol-1-yl]acetamide] | 0.0185 µM |
| CC(CO)(CO)n1cc(C(=O)c2cc(NC(=O)Cc3ccc(Cl)cn3)ccn2)c2cncnc21 [Example 106, 2-(5-chloropyridin-2-yl)-N-(2-{[7-(1,3-dihydroxy-2-methylpropan-2-yl)-7H-pyrrolo[2,3-d]pyrimidin-5-yl]carbonyl}pyridin-4-yl)acetamide] | 0.663 µM |
| Cc1cc(C(F)(F)F)nn1CC(=O)Nc1cc(C(=O)c2cn(C(C)(C)CO)c3nc(N)ncc23)ccc1C#N [Example 10, N-(5-{[2-amino-7-(1-hydroxy-2-methylpropan-2-yl)-7H-pyrrolo[2,3-d]pyrimidin-5-yl]carbonyl}-2-cyanophenyl)-2-[5-methyl-3-(trifluoromethyl)-1H-pyrazol-1-yl]acetamide] | 0.0132 µM |
| CC(C)n1cc(C(=O)c2ccnc(NC(=O)Cn3ccnc3)c2)c2cncnc21 [Example 156, 2-(1H-imidazol-1-yl)-N-(4-{[7-(propan-2-yl)-7H-pyrrolo[2,3-d]pyrimidin-5-yl]carbonyl}pyridin-2-yl)acetamide] | 1.06 µM |
| CC(C)(CO)n1cc(C(=O)c2ccc(C#N)c(NC(=O)Cc3ccc(C(F)(F)F)cc3)c2)c2cnc(N)nc21 [Example 7, N-{5-[2-Amino-7-(2-hydroxy-1,1-dimethyl-ethyl)-7H-pyrrolo[2,3-d]pyrimidine-5-carbonyl]-2-cyano-phenyl}-2-(4-trifluoromethyl-phenyl)-acetamide] | 0.00593 µM |
